Assay results from paper PMC6201879, “N-substituted phenylbenzamides of the niclosamide chemotype attenuate obesity related changes in high fat diet fed mice” (PLoS ONE, 2018).
Values joined by “and” are separate entries in the source; they are usually repeats but may differ in a detail not shown here. Identical values can stand only once. Like-named read-outs stand apart in the source and are kept apart here.

What was measured:
[1] = tested on: PH5CH8 liver cells; assay: High-throughput hepatic de novo lipogenesis (DNL) assay, high content imaging of steatotic phenotype; assay type: cell-based, human; details: for IC50: Homo sapiens
[2] = tested on: HEK293 cells stably transduced with the human OCT3 transporter; assay: Cellular oxygen consumption rate (OCR), MitoXpress Xtra; assay type: cell-based; details: HEK293 cells expressing human OCT3; compared to DMSO control; 2 hours
Procedure, shortened: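 HEK293 cells stably expressing human OCT3, treated with four compound concentrations; oxygen consumption followed by MitoXpress Xtra TR-F lifetime (340/650 nm) every 2 min for 2 h. Lifetime slope from the linear portion taken as OCR; FCCP (1 μM) as stimulated control, differences versus DMSO by t-test.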

[3] = Metabolic stability in human liver microsomes; assay type: in vitro ADME; details: for Remaining Percentage of 60 min (%), Human, Tested Sample: 0.5mg/ml microsomes and 1mM NADPH; for Remaining Percentage of 60 min (%), Human, Negative Control: 0.5mg/ml microsomes without NADPH; for Remaining Percentage of 60 min (%), Human, Heat-inactivated Control: heat inactivated microsomes without NADPH
Protocol: (§1) Three experiments were performed with 1) 0.5mg/ml microsomes and 1mM NADPH, 2) 0.5mg/ml microsomes without NADPH and 3) 0.5mg/ml heat inactivated microsomes without NADPH in 100mM phosphate buffer, containing 5mM magnesium chloride. […] At the indicated time points, 50μl samples were removed and stopped by addition of 4 volumes of cold acetonitrile with internal standards, 100nM alprazolam, 200nM labetalol and 2μM ketoprofen. The samples were centrifuged at 3,220 g for 40 minutes and aliquots of 100μl were subsequently diluted with 100μl of ultra-pure water and analyzed by LC/MS/MS using a (Shimadzu corporation) LC system coupled to a Shimadzu Triple Quad 5500 mass spectrometer with an ESI interface. The LC system used a Waters XSelect HSS T3 C18, 2.5μm, 2.1 x 50 mm column eluted with one of two methods using mobile phases A (water, 0.1% formic acid) and B (acetonitrile, 0.1% formic acid). […] The Shimadzu Triple Quad 5500 MS was operated with the following parameters: Ion source: Turbo spray; Ionization mode: ESI; Scan type: MRM; Collision gas: 10 L/min; Curtain gas: 30 L/min; Nebulize gas: 50 L/min; Auxiliary gas: 50 L/min; Temperature: 500°C; Ionspray voltage: +5500 V (positive MRM). All experiments were performed in duplicate. Data were analyzed using Microsoft excel, and peak areas were determined from extracted ion chromatograms.

[4] = Metabolic stability in mouse liver microsomes; assay type: in vitro ADME; details: for Remaining Percentage of 60 min (%), Mouse, Tested Sample: 0.5mg/ml microsomes and 1mM NADPH; for Remaining Percentage of 60 min (%), Mouse, Negative Control: 0.5mg/ml microsomes without NADPH; for Remaining Percentage of 60 min (%), Mouse, Heat-inactivated Control: heat inactivated microsomes without NADPH
Protocol: as §1

[5] = Pharmacokinetic profile in Sprague Dawley rats (IV and PO); assay type: in vivo; details: Mean + SD (n = 3); for F (oral bioavailability) / bioavailability: PO 5 mg/kg vs IV 1 mg/kg; for half-life / Cmax / bioavailability: Sprague Dawley; for half-life / Cmax / bioavailability / C0 / AUC(0-inf) / AUC(0-t) / clearance / MRT inf / Tmax: rat, plasma; for bioavailability: read-out: F (oral bioavailability); for clearance: read-out: Cl_obs
Protocol: To evaluate the pharmacokinetic profile by oral (PO) and intravenous (IV) administration routes we used 6 to 8-week old Sprague Dawley rats weighing approximately 200-330g (n = 3 per study group). Compounds were administered at 1mg/kg in 5% Cremophor EL and 20% PEG400 in water for IV and 5mg/kg in PBS for PO. All dose formulation was performed at room temperature. Animals were fasted overnight prior to dosing and were re-fed approximately 4 hours after dosing. For PO, 0.2ml of blood was collected pre- and 0.5, 1, 2, 4 8 12 and 24-hours after drug delivery and transferred to EDTA-K2 BD Vacutainer plastic blood collection tubes. IV samples were collected pre-injection and 0.08, 0.25, 0.5, 1, 2, 4, 8, 12, 24-hours post injection. Blood samples were centrifuged at 2,000 g for 5 minutes at 4°C to obtain plasma. Plasma samples were stored at -75±15°C prior to analysis and then thawed and analyzed by LC-MS/MS method and pharmacokinetic calculations were performed using WinNolin (Phoenix, version 6.4). For IV administration: T1/2, C0, AUClast, AUCinf, MRT, Cl, Vss, and number of points for regression were determined. For PO administration: T1/2, Cmax, Tmax, AUCinf, AUClast, F(0-∞) %, and number of points for regression were determined. Data are reported as mean and standard deviation.

[6] = tested on: Salmonella typhimurium TA100; details: for Mean Revertant Colony Counts TA-100 SP9+: with S9; for Mean Revertant Colony Counts TA-100 S9-: without S9; for fold increase in the mean number of revertant colonies, TA100: any concentration tested, vs negative control
[7] = PH5CH8 liver cells, 10-point dose response between 1μM and 1.9nM, read-out: IC50 (uM), inhibition of steatotic phenotype in DNL assay
[8] = iv, 1 mg/kg, IV 1 mg/kg, read-out: T 1/2 (IV) (converted)
[9] = IV 1 mg/kg, read-out: AUC Inf (IV)
[10] = IV 1 mg/kg, read-out: AUC last (IV)
[11] = IV 1 mg/kg, read-out: MRT Inf_obs (IV)
[12] = PO 5 mg/kg in PBS, read-out: AUC Inf (PO)
[13] = PO 5 mg/kg in PBS, read-out: AUC last (PO)
[14] = PO 5 mg/kg in PBS, read-out: MRT Inf_obs (PO)

Q: What does the source list for `CC(C)(C)c1ccc(O)c(C(=O)Nc2cc(C(=O)O)ccc2Cl)c1` [Compound 600494, 3-{[2-Hydroxy-5-(tert-butyl)benzene]amido}-4chloro-benzoic acid]?
A: IC50 [1, 7]: 0.004 µM; IC50 ([1]; S1 Table. SAR for N-Substituted Phenylbenzamides, read-out: IC50): 0.0039 µM; Active/Inactive ([1]; S1 Table. SAR for N-Substituted Phenylbenzamides): Active; change in respiration / oxygen consumption rate (OCR) [2]: no change in respiration; Remaining Percentage of 60 min (%), Human, Tested Sample [3]: 99.4%; Remaining Percentage of 60 min (%), Human, Negative Control [3]: 92.8%; Remaining Percentage of 60 min (%), Human, Heat-inactivated Control [3]: 114.2%; Remaining Percentage of 60 min (%), Mouse, Tested Sample [4]: 109.6%; Remaining Percentage of 60 min (%), Mouse, Negative Control [4]: 68.9%; Remaining Percentage of 60 min (%), Mouse, Heat-inactivated Control [4]: 98.5%; AUC _%Extrap_obs (IV) ([5]; IV 1 mg/kg): 1.23 +/- 1.05%; AUCl ast/D (IV) ([5]; IV 1 mg/kg): 18200 ± 1190 ng·kg·h/mL/mg; V ss_obs ([5]; IV 1 mg/kg): 0.13 ± 0.035 L/kg; AUC _%Extrap_obs (PO) ([5]; PO 5 mg/kg in PBS): 3.64 +/-4.73%; AUC last / D (PO) ([5]; PO 5 mg/kg in PBS): 2490 ± 542 ng·kg·h/mL/mg; T 1/2 (PO) ([5]; PO 5 mg/kg in PBS, 5 mg/kg): 4.6 h and 4.58 ± 2.61 h; F (oral bioavailability) [5]: 14.17 +/- 3.8%; half-life [5, 8]: 5.36 ± 2 h; Cmax ([5]; po, 5 mg/kg, PO 5 mg/kg in PBS): 1850 ± 674 ng/mL; half-life ([5]; po, 5 mg/kg, PO 5 mg/kg in PBS, read-out: T 1/2 (PO) (converted)): 5.3 h; bioavailability ([5]; po, 5 mg/kg): 14%; C0 ([5]; IV 1 mg/kg): 22900 ± 4300 ng/mL; AUC(0-inf) [5, 9]: 18400 ± 1400 ng·h/mL; AUC(0-t) [5, 10]: 18200 ± 1190 ng·h/mL; clearance ([5]; IV 1 mg/kg): 0.91 ± 0.068 mL/min/kg; MRT inf [5, 11]: 2.39 ± 0.69 h; Tmax ([5]; PO 5 mg/kg in PBS): 5.33 ± 2.31 h; AUC(0-inf) [5, 12]: 13000 ± 3520 ng·h/mL; AUC(0-t) [5, 13]: 12400 ± 2710 ng·h/mL; MRT inf [5, 14]: 7.89 ± 1.49 h; Mean Revertant Colony Counts TA-100 SP9+ ([6]; 1.5 ug/Well): 20.7; Mean Revertant Colony Counts TA-100 S9- ([6]; 1.5 ug/Well): 30.0; Mean Revertant Colony Counts TA-100 SP9+ ([6]; 4 ug/Well): 17.3; Mean Revertant Colony Counts TA-100 S9- ([6]; 4 ug/Well): 27.0; Mean Revertant Colony Counts TA-100 SP9+ ([6]; 10 ug/Well): 18.0; Mean Revertant Colony Counts TA-100 S9- ([6]; 10 ug/Well): 25.0; Mean Revertant Colony Counts TA-100 SP9+ ([6]; 25 ug/Well): 22.0; Mean Revertant Colony Counts TA-100 S9- ([6]; 25 ug/Well): 24.0; Mean Revertant Colony Counts TA-100 SP9+ ([6]; 64 ug/Well): 16.3; Mean Revertant Colony Counts TA-100 S9- ([6]; 64 ug/Well): 33.0; Mean Revertant Colony Counts TA-100 SP9+ ([6]; 160 ug/Well): 21.0; Mean Revertant Colony Counts TA-100 S9- ([6]; 160 ug/Well): 25.7; Mean Revertant Colony Counts TA-100 SP9+ ([6]; 400 ug/Well): 21.3; Mean Revertant Colony Counts TA-100 S9- ([6]; 400 ug/Well): 22.3; Mean Revertant Colony Counts TA-100 SP9+ ([6]; 1000 ug/Well): 20.3; Mean Revertant Colony Counts TA-100 S9- ([6]; 1000 ug/Well): 17.7; fold increase in the mean number of revertant colonies, TA100 [6]: < 2 fold

Q: What does the source list for `CC(C)(C)c1ccc(O)c(C(=O)Nc2ccc(C(=O)O)cc2C(F)(F)F)c1` [Compound 500873, 4-[(5-tert-butyl-2-hydroxy)amido]-3-(trifluoromethyl)benzoic acid]?
A: IC50 [1, 7]: 0.005 µM; IC50 ([1]; S1 Table, SAR for N-Substituted Phenylbenzamides, read-out: IC50): 0.0046 µM; Active/Inactive ([1]; S1 Table, SAR for N-Substituted Phenylbenzamides): Active; change in respiration / oxygen consumption rate (OCR) [2]: no change in respiration; Remaining Percentage of 60 min (%), Human, Tested Sample [3]: 64.2%; Remaining Percentage of 60 min (%), Human, Negative Control [3]: 97.7%; Remaining Percentage of 60 min (%), Human, Heat-inactivated Control [3]: 91.1%; Remaining Percentage of 60 min (%), Mouse, Tested Sample [4]: 107.5%; Remaining Percentage of 60 min (%), Mouse, Negative Control [4]: 106.4%; stability in MLM ([4]; 60 minutes): stable; Remaining Percentage of 60 min (%), Mouse, Heat-inactivated Control [4]: 105.5%; AUC _%Extrap_obs (IV) ([5]; IV 1 mg/kg): 0.249 +/- 0.151%; AUCl ast/D (IV) ([5]; IV 1 mg/kg): 13000 ± 3070 ng·kg·h/mL/mg; V ss_obs ([5]; IV 1 mg/kg): 0.11 ± 0.004 L/kg; AUC _%Extrap_obs (PO) ([5]; PO 5 mg/kg in PBS): 11.14 +/- 11.6%; AUC last / D (PO) ([5]; PO 5 mg/kg in PBS): 1290 ± 817 ng·kg·h/mL/mg; C max ([5]; PO 5 mg/kg in PBS, 5 mg/kg): 912.33 ± 856 ng/mL; F (oral bioavailability) [5]: 10.20 +/-6.3%; half-life [5, 8]: 2.87 ± 0.86 h; Cmax ([5]; po, 5 mg/kg, PO 5 mg/kg in PBS): 912 ng/mL; bioavailability ([5]; po, 5 mg/kg): 10%; C0 ([5]; IV 1 mg/kg): 24100 ± 4000 ng/mL; AUC(0-inf) [5, 9]: 13000 ± 3070 ng·h/mL; AUC(0-t) [5, 10]: 13000 ± 3070 ng·h/mL; clearance ([5]; IV 1 mg/kg): 1.33 ± 0.31 mL/min/kg; MRT inf [5, 11]: 1.42 ± 0.29 h; Tmax ([5]; PO 5 mg/kg in PBS): 3.33 ± 1.15 h; AUC(0-inf) [5, 12]: 6950 ± 3680 ng·h/mL; AUC(0-t) [5, 13]: 6430 ± 4080 ng·h/mL; MRT inf [5, 14]: 10 ± 5.6 h; Mean Revertant Colony Counts TA-100 SP9+ ([6]; 1.5 ug/Well): 22.3; Mean Revertant Colony Counts TA-100 S9- ([6]; 1.5 ug/Well): 33.0; Mean Revertant Colony Counts TA-100 SP9+ ([6]; 4 ug/Well): 18.3; Mean Revertant Colony Counts TA-100 S9- ([6]; 4 ug/Well): 31.7; Mean Revertant Colony Counts TA-100 SP9+ ([6]; 10 ug/Well): 20.7; Mean Revertant Colony Counts TA-100 S9- ([6]; 10 ug/Well): 28.3; Mean Revertant Colony Counts TA-100 SP9+ ([6]; 25 ug/Well): 16.7; Mean Revertant Colony Counts TA-100 S9- ([6]; 25 ug/Well): 25.0; Mean Revertant Colony Counts TA-100 SP9+ ([6]; 64 ug/Well): 18.3; Mean Revertant Colony Counts TA-100 S9- ([6]; 64 ug/Well): 28.7; Mean Revertant Colony Counts TA-100 SP9+ ([6]; 160 ug/Well): 22.7; Mean Revertant Colony Counts TA-100 S9- ([6]; 160 ug/Well): 25.0; Mean Revertant Colony Counts TA-100 SP9+ ([6]; 400 ug/Well): 17.7; Mean Revertant Colony Counts TA-100 S9- ([6]; 400 ug/Well): 21.0; fold increase in the mean number of revertant colonies, TA100 [6]: < 2 fold
